Experiment [1] can be described thus: Tested for its activity to inhibit the binding of [125I]gastrin to gastric glands (gastrin) in guinea pig.
Experiment [2] in a line: Tested for its activity to inhibit the binding of [125I]CCK-33 to Cholecystokinin type B receptor in guinea pig brain.
The nature of experiment [3]: Tested for its activity to inhibit the binding of [125I]gastrin to gastric glands (gastrin) in guinea pig. This is another data set of the same source.

Turning to `Cn1c(C(=O)Nc2cc3c4ccccc4nc-3c[nH]2)cc2ccccc21` [1-Methyl-1H-indole-2-carboxylic acid (9H-beta-carbolin-3-yl)-amide], the IC50 in experiment [1] and in experiment [2] was more than 100 µM in each case.

For the molecule `O=C(Cc1ccccc1)Nc1cc2c3ccccc3nc-2c[nH]1` [N-(9H-beta-Carbolin-3-yl)-2-phenyl-acetamide], the IC50 in experiment [3] turned out to be 14 µM; in experiment [2], 34 µM.

As to `O=C(Nc1cc2c3ccccc3nc-2c[nH]1)c1ccccc1` [N-(9H-beta-Carbolin-3-yl)-benzamide], the IC50 in experiment [3] is more than 100 µM; in experiment [2], 223 µM.

A word on the IC50: it is the concentration that gives 50% inhibition.

The record behind these values is BindingDB's records for doi:10.1016/S0960-894X(00)80682-4 (1993).
